PMC10385579, “Design, Synthesis, and Biological Evaluation of Indole-2-carboxamides as Potential Multi-Target Antiproliferative Agents” (Pharmaceuticals, 2023)
Read-outs that look alike come from different tables or passages of the source. Each block holds one compound with its values, some of them ahead of it.

How the values were obtained:
EGFR [1] = biological target: T1, EGFR (Homo sapiens, UniProt P00533); parameters: 645–1186); His6 (N); made in house; host or cells: Sf-9 insect cells (baculovirus; pBlueBacHis2B / pFASTBacHTc; details: cited from earlier work
T1 sequence (P00533 669-1210): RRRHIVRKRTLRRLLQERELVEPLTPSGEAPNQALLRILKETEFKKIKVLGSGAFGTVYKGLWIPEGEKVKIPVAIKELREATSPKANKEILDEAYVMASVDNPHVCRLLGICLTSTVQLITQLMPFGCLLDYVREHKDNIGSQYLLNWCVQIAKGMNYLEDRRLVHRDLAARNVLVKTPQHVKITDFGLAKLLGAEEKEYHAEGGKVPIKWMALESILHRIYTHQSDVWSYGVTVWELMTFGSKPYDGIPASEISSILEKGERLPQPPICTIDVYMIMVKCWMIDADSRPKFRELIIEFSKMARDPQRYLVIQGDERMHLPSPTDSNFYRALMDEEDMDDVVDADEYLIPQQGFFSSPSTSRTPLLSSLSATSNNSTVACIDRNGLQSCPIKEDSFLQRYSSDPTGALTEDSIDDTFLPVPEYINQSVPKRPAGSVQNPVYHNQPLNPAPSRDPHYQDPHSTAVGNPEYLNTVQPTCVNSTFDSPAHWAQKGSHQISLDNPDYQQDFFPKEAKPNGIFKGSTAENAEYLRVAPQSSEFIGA

VEGFR-2 [2] = biological target: T2, VEGFR-2 (Homo sapiens, UniProt P35968); parameters: purchased Carna Biosciences, Inc; details: cited from earlier work
T2 sequence (P35968 20-1356): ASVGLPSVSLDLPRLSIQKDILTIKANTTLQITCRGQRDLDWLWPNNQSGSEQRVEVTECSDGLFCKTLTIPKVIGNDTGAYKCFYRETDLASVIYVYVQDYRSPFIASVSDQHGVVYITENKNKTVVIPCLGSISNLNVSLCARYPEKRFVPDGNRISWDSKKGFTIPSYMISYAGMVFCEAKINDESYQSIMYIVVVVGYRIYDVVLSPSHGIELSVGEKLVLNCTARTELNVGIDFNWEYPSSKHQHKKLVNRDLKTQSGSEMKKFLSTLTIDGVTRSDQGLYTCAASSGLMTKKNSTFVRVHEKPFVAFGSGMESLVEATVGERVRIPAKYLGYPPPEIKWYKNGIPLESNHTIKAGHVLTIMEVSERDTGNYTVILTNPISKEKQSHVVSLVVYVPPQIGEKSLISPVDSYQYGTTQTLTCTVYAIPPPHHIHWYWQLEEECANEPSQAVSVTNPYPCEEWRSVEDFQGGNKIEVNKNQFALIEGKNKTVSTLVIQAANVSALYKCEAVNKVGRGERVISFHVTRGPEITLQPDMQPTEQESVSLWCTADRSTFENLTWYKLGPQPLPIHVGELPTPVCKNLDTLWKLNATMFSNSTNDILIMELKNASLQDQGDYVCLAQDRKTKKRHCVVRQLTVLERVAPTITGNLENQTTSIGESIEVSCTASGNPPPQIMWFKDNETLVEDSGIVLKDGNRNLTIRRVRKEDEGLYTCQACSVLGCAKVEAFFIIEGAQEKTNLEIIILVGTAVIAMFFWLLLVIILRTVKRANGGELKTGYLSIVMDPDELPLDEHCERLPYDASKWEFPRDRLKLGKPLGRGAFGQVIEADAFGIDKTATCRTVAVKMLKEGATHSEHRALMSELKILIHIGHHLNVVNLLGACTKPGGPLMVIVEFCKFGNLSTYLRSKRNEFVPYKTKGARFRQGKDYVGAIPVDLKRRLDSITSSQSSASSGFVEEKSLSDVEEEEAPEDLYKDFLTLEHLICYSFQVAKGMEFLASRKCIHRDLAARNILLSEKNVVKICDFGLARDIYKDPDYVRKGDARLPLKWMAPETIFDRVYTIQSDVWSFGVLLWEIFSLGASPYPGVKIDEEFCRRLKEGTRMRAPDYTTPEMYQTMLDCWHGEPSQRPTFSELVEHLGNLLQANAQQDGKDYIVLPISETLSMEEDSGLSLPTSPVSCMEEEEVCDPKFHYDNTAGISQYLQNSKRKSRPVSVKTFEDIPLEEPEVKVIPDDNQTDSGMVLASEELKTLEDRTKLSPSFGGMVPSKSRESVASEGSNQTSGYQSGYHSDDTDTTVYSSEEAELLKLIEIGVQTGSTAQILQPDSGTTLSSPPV

BRAF^V600E [3] = system: BRAF^V600E; parameters: method as in PMID 32920363, PMID 29407956, PMID 36770936, PMID 36015154, PMID 35078049; details: cited from earlier work
cancer cell lines = system: cancer cell lines; parameters: method as in PMID 32920363, PMID 29407956, PMID 36770936, PMID 36015154, PMID 35078049; details: cited from earlier work
CDK2 = system: CDK2; parameters: method as in PMID 32920363, PMID 29407956, PMID 36770936, PMID 36015154, PMID 35078049; details: cited from earlier work
EGFR^T790M = system: EGFR^T790M; parameters: method as in PMID 32920363, PMID 29407956, PMID 36770936, PMID 36015154, PMID 35078049; details: cited from earlier work
[4] = system: colon cancer (HT-29) cell line; experiment: Antiproliferative assay, HT-29; format: cell-based; details: Homo sapiens, read-out: Antiproliferative Activity IC50 ± SEM, HT-29
Description: (§1) 4.2.1.2. Assay for antiproliferative effect
(§2) To explore the antiproliferative potential of compounds propidium iodide fluorescence assay was performed using different cell lines such as Panc-1 (pancreas cancer cell line), MCF-7 (breast cancer cell line), HT-29 (colon cancer cell line) and A-549 (epithelial cancer cell line), respectively.
(§3) To calculate the total nuclear DNA, a fluorescent dye (propidium iodide, PI) is used which can attach to the DNA, thus offering a quick and precise technique. PI cannot pass through the cell membrane and its signal intensity can be considered as directly proportional to quantity of cellular
(§4) DNA. Cells whose cell membranes are damaged or have changed permeability are counted as dead ones. The assay was performed by seeding the cells of different cell lines at a density of 3000-7500 cells/well (in200μl medium) in culture plates followed by incubation for 24h at 37 °C in humidified 5%CO2/95% air atmospheric conditions. The medium was removed; the compounds were added to the plates at 10 μM concentrations (in 0.1% DMSO) in triplicates, followed by incubation for 48h. DMSO (0.1%) was used as control. After incubation, medium was removed followed by the addition of PI (25 μl, 50μg/mL in water/medium) to each well of the plates. At - 80 °C, the plates were allowed to freeze for 24 h, followed by thawing at 25 °C. A fluorometer (Polar-Star BMG Tech) was used to record the readings at excitation and emission wavelengths of 530 and 620 nm for each well. The percentage cytotoxicity of compounds was calculated using […]
(§5) Where ATC= Absorbance of treated cells and AC= Absorbance of control. Erlotinib was used as positive control in the assay.

EGFR [5] = biological target: T1, EGFR; experiment: EGFR inhibitory assay
[6] = system: human epithelial (A-549) cancer cell line; experiment: Antiproliferative assay, A-549; format: cell-based; details: A549, read-out: Antiproliferative Activity IC50 ± SEM, A-549
Description: as §1, §2, §3, §4, §5

[7] = system: breast cancer (MCF-7) cell line; experiment: Antiproliferative assay, MCF-7; format: cell-based; details: Homo sapiens, MCF7; read-out: Antiproliferative Activity IC50 ± SEM, MCF-7
Description: as §1, §2, §3, §4, §5

BRAF^V600E [8] = biological target: BRAF^V600E (Mus musculus, UniProt P28028, V585E); experiment: BRAF^V600E inhibitory assay
Chain of BRAF^V600E (Mus musculus, UniProt P28028, V585E) (P28028 whole entry V585E): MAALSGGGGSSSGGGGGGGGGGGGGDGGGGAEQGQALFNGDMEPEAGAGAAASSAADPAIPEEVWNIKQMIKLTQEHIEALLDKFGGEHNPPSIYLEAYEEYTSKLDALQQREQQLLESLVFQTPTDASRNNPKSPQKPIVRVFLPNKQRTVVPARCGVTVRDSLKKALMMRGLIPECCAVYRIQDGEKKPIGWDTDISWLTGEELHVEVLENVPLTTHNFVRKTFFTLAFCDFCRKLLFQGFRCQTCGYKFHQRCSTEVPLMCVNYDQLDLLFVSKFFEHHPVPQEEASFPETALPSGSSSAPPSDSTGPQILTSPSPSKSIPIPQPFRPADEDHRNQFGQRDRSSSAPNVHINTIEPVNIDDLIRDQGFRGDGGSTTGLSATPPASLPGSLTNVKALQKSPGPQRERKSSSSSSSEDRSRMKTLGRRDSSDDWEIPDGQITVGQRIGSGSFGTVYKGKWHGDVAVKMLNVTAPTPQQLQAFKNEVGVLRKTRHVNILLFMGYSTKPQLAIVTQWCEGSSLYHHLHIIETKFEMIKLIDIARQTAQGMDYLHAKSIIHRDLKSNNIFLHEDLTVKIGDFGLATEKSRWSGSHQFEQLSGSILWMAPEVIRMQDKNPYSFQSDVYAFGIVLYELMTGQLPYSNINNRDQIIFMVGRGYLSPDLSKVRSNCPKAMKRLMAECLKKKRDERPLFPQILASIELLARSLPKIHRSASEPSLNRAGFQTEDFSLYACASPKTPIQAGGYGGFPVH
Description: BRAFV600E inhibitory assay
V600E mutant BRAF kinase assay was performed to investigate the activity of tested compounds against BRAF. Mouse full-length GST-tagged BRAFV600E (7.5 ng, Invitrogen, PV3849) was pre-incubated with drug (1 µL) and assay dilution buffer (4 µL) for 60 min at 25 °C. In assay dilution buffer, a solution (5 µL) containing MgCl2 (30 mM), ATP (200 µM), recombinant human full length (200 ng) and N-terminal His-tagged MEK1 (Invitrogen) was added to start the assay, subsequent to incubation for 25 min at 25 °C. The assay was stopped using 5X protein denaturing buffer (LDS) solution (5 µL). To further denature the protein, heat (70° C) was applied for 5 min.
10 µL of each reaction was loaded into the precast plates and electrophoresis was allowed to proceed. After completion of electrophoresis, the front part of the precast gel plate (holding hot ATP) was cut and afterwards cast-off. The dried gel was developed using a phosphor screen.

[9] = system: four human cancer cell lines (A-549, MCF-7, Panc-1, HT-29); experiment: Antiproliferative assay, average over the four cancer cell lines (GI50); format: cell-based; details: average of the four cancer cell lines
Description: See Supplementary Materials.
as §1
To explore the antiproliferative potential of compounds propidium iodide fluorescence assay was performed using different cell lines such as Panc-1 (pancreas cancer cell line), MCF-7 (breast […]
as §3
DNA. Cells whose cell membranes are damaged or have changed permeability are counted as dead ones. The assay was performed by seeding the cells of different cell lines at a density of 3000- […]
The medium was removed; the compounds were added to the plates at 10 μM concentrations (in 0.1% DMSO) in triplicates, followed by incubation for 48h. DMSO (0.1%) was used as control. After incubation, medium was removed followed by the addition of PI (25 μl, 50μg/mL in water/medium) to each well of the plates. At - 80 °C, the plates were allowed to freeze for 24 h, followed by thawing at 25 °C. A fluorometer (Polar-Star BMG Tech) was used to record the readings at excitation and emission wavelengths of 530 and 620 nm for each well. The percentage cytotoxicity of compounds was calculated using […]
Where ATC= Absorbance of treated cells and AC= Absorbance of control. […]
positive control in the assay.

VEGFR-2 [10] = biological target: T2, VEGFR-2; experiment: VEGFR-2 inhibitory assay
Description: Prepare all the solutions using autoclaved, deionized water and analytical grade reagents.
and store all the reagents at room temperature (unless indicated otherwise).
solution, add 5 mL ultra-pure water; 1×Kinase Assay Buffer: add 25 mL HEPES solution (1 M),
water, adjust pH to 7.5 and constant volume to 500 mL using ultrapure water; 4×Stop solution (40
mM): Mix 0.8 mL of the foregoing EDTA solution, 1 mL 10×Detection Buffer and 8.2 mL ultra-
pure water; 1×Detection Buffer: Mix 1 mL 10×Detection Buffer with 9 mL water; 4×VEGFR
μM) was added to 624 μL 1×Kinase Assay Buffer and mixed; 4×ULight™-labeled JAK1
concentration 5 μM) was added to 576 μL 1×Kinase Assay Buffer and mixed; 4×ATP Solution
2×substrate/ATP Mix: 560 μL foregoing 4×ULight™-labeled JAK1 and 560 μL 4×ATP solution
and mixed (prepared before use). The assays used an ULight-labeled peptide substrate and a
Europium-W1024-labeled antiphosphotyrosine antibody. The VEGFR-2 was purchased from
Carna Biosciences, Inc. (New York, USA). The 384-well plates were obtained from PerkinElmer.
5 μL 2×VEGFR-2 kinase solution (0.5 nM)
was added to 384-well plates homogeneous mixing and pre-reaction at room temperature for 30 min. Next, 2.5 μL 4×Ultra ULightTM-JAK-1(Tyr1023) Peptide (200 nM)/ATP (40 μM) was added to the corresponding wells of a 384-well plate. Negative control: 2.5 μL/well 4×substrate/ATP mixture and 7.5 μL 1×kinase assay buffer in 384-well plate well. Positive control:
μL/well 2×VEGFR-2 kinase solution was added to the 384-well plate, The final concentration of DMSO in the mixing system was 4%. After incubation at room temperature and dark for 60 min, 5 μL 4×stop solution was added to corresponding wells to react for 5 min and then 5 μL 4×detection mix was added to the corresponding wells of a 384-well plate. The mixture was centrifugally mixed and stayed for 60 min at room temperature for color development. The plate was read using a Envision plate reader. The inhibition rate (%) = (positive well reading-compound well reading)/(positive well reading-negative well reading)×100. The corresponding IC50 values were calculated using GraphPad Prism 5.0.

caspase-3 = experiment: Caspase 3 assay in A-549 cells; format: cell-based, human; details: for Caspase-3 Conc: untreated control 66 pg/mL; for Caspase-3 Fold Change: vs untreated control
Description: Caspases play a crucial function in the induction and completion of apoptosis. Caspase-3 is an essential caspase that cleaves different proteins in cells, resulting in apoptosis. […]
4.2.5. Caspase-3 activation assay
Allow all reagents to reach room temperature before use. Gently mix all liquid reagents prior to use. Determine the number of 8-well strips needed for the assay. Insert these in the frame(s) for current use. Add 100 μl of the Standard Diluent Buffer to the zero standard wells. Well(s) reserved for chromogen blank should be left empty. Add 100 μl of standards and controls or diluted samples to the appropriate microtiter wells. The sample dilution chosen should be optimized for each experimental system. Tap gently on side of plate to mix. Cover wells with plate cover and incubate for 2 hours at room temperature. Thoroughly aspirate or decant solution from wells and discard the liquid, Wash wells 4 times. Pipette 100 μl of Caspase-3 (Active) Detection Antibody solution into each well except the chromogen blank(s). Tap gently on the side of the plate to mix. Cover plate with plate cover and incubate for 1 hour at room temperature. Thoroughly aspirate or decant solution from wells and discard the liquid, Wash wells 4 times. Add 100 μl Anti-Rabbit IgG HRP Working Solution to each well except the chromogen blank(s). Prepare the working dilution as described in Preparing IgG HRP. Cover wells with the plate cover and incubate for 30 minutes at room temperature. Thoroughly aspirate or decant solution from wells and discard the liquid. Wash wells 4 times. Add 100 μl of Stabilized Chromoge n to each well. The liquid in the wells will begin to turn blue. Incubate for 30 minutes at room temperature and in the dark. The incubation time for chromogen substrate is often determined by the microtiter plate reader used. Many plate readers have the capacity to record a maximum optical density (O.D.) of 2.0. The O.D. values should be monitored, and the substrate reaction stopped before the O.D. of the positive wells exceeds the limits of the instrument. The O.D. values at 450 nm can only be read after the Stop Solution has been added to each well. If using a reader that records only to 2.0 O.D., stopping the assay after […]
Add 100 μl of Stop Solution to each well. Tap side of plate gently to mix. The solution in the wells should change from blue to yellow. Read the absorbance of each well at 450 nm having blanked the plate reader against a chromogen blank composed of 100 μl each of Stabilized Chromogen and Stop Solution. Read the plate within 2 hours after adding the Stop Solution. Use a curve fitting software to generate the standard curve. A four-parameter algorithm provides the best standard curve fit. Read the concentrations for unknown samples and controls from the standard curve. Multiply value(s) obtained for sample(s) by the appropriate dilution factor to correct for the dilution in step 3. Samples producing signals greater than that of the highest standard should be diluted in Standard Diluent Buffer and reanalyzed.

[11] = Cell viability assay (MTT) on MCF-10A; format: cell-based; details: human, MCF-10A mammary gland epithelial cells, MCF-10A cells, four days
Description: To assess the viability of compounds IV and Va–i, the human mammary gland epithelial (MCF-10A) cell line was exploited. Compounds IV and Va–i were cultured for four days on MCF-10A cells before being evaluated for vitality using the MTT assay.
To test the viability of the new compounds, the human mammary gland epithelial (MCF-10A) cell line was used. Compounds IV and Va–i were incubated on MCF-10A cells for four days before being tested for viability using the MTT assay. See Supplementary Materials.
4.2. Biological evaluation
4.2.1. Cytotoxic activity using MTT Assay and evaluation of IC50
MTT assay was performed to investigate the effect of the synthesized compounds on mammary epithelial cells (MCF-10A). The cells were propagated in medium consisting of Ham's F-12 medium/ Dulbecco's modified Eagle's medium (DMEM) (1:1) supplemented with 10% foetal calf serum, 2 mM glutamine, insulin (10 μg/mL), hydrocortisone (500 ng/mL) and epidermal growth factor (20 ng/mL). Trypsin ethylenediamine tetra acetic acid (EDTA) was used to passage the cells after every 2-3 days. 96-well flat-bottomed cell culture plates were used to seed the cells at a density of 10^4 cells mL-1. The medium was aspirated from all the wells of culture plates after 24 h followed by the addition of synthesized compounds (in 200 μL medium to yield a final concentration of 0.1% (v/v) dimethyl sulfoxide) into individual wells of the plates. Four wells were designated to a single compound. The plates were allowed to incubate at 37°C for 96 h. Afterwards, the medium was aspirated and 3-[4,5-dimethylthiazol-2-yl]-2,5-diphenyltetrazolium bromide (MTT) (0.4 mg/mL) in medium was added to each well and subsequently incubated for 3 h. The medium was aspirated and 150 μL dimethyl sulfoxide (DMSO) was added to each well. The plates were vortexed followed by the measurement of absorbance at 540 nm on a microplate reader. The results were presented as inhibition (%) of proliferation in contrast to controls comprising 0.1%

[12] = system: pancreatic cancer (Panc-1) cell line; experiment: Antiproliferative assay, Panc-1; format: cell-based; details: Homo sapiens, read-out: Antiproliferative Activity IC50 ± SEM, Panc-1
Description: as §1, §2, §3, §4, §5

[13] = system: mutant EGFR vs wild-type EGFR; details: cited from earlier work
[14] = four cancer cell lines, read-out: GI50 vs four cancer cell lines

Structure (SMILES): c1nc(Nc2ccc(N3CCOCC3)cc2)cc(Oc2ccc3[nH]ccc3c2)n1 [Compound 4]
IC50 (EGFR [1]): 7 nM
IC50 (VEGFR-2 [2]): 1200 nM

Structure (SMILES): Cc1c2cc(Cl)ccc2n2cc(Cc3ccccc3)[nH]c(=O)c12 [Compound 6]
IC50 (BRAF^V600E [3]): 100 nM
GI50 (cancer cell lines; three cancer cell lines, read-out: GI50 vs three cancer cell lines): 500 nM

Structure (SMILES): Cc1c2n(c3ccc(Cl)cc13)C(=O)CN(CCc1ccc(N3CCOCC3)cc1)C2=O [Compound 7]
IC50 (BRAF^V600E [3]): 150 nM
GI50 (cancer cell lines; [14]): 1100 nM

Structure (SMILES): CCOCc1c2n(c3ccc(Cl)cc13)C(=O)CN(CCc1ccc(N3CCOCC3)cc1)C2=O [Compound 9]
IC50 (BRAF^V600E [3]): 45 nM
GI50 (cancer cell lines; [14]): 35 nM

Structure (SMILES): Cc1c(C(=O)NCCc2ccc(N3CCCC3C)cc2)[nH]c2ccc(Cl)cc12 (centres unmarked) [Compound 10]
GI50 (cancer cell lines; [14]): 950 nM
IC50 (CDK2): 13 nM

Structure (SMILES): CCOC(=O)c1[nH]c2ccc(Cl)cc2c1CNCCc1cccc(N2CCCCC2)c1 [Compound 11]
IC50 (BRAF^V600E [3]): 35 nM
IC50 (EGFR^T790M): 8.6 nM
GI50 (cancer cell lines; [14]): 29 nM

Structure (SMILES): CCc1c(C(=O)NCCc2ccc(N3CCOCC3)cc2)[nH]c2ccc(C)cc12 [Compound 12]
GI50 (cancer cell lines; [14]): 37 nM
IC50 (CDK2): 16 nM

Structure (SMILES): CCOCc1c(C(=O)NCC(c2ccccc2)c2c(-c3ccccc3)[nH]c3ccccc23)[nH]c2ccc(Cl)cc12 (centres unmarked) [Compound Vh, 5-Chloro-3-(ethoxymethyl)-N-(2-phenyl-2-(2-phenyl-1H-indol-3-yl)ethyl)-1H-indole-2-carboxamide]
IC50 [4]: 38 ± 3 nM
IC50 (EGFR [5]): 85 ± 7 nM
IC50 [6]: 34 ± 3 nM
IC50 [7]: 38 ± 3 nM
IC50 (BRAF^V600E [8]): 89 ± 7 nM
GI50 [9]: 37 nM
melting point: 210 to 212 °C
IC50 (VEGFR-2 [10]): 3.25 ± 0.25 nM
Caspase-3 Conc (caspase-3): 460 ± 4 pg/mL
Caspase-3 Fold Change (caspase-3): 7
viability at 96 h, 50 µM [11]: 90%
IC50 [12]: 36 ± 3 nM

Structure (SMILES): C=CC(=O)Nc1cc(Nc2nccc(-c3cn(C)c4ccccc34)n2)c(OC)cc1N(C)CCN(C)C [Osimertinib]
selectivity for the mutant protein over wild-type EGFR [13]: approximately 200 times

IC50 [4]: 45 ± 4 nM
IC50 (EGFR [5]): 94 ± 7 nM
IC50 [6]: 42 ± 4 nM
IC50 [7]: 46 ± 4 nM
IC50 (BRAF^V600E [8]): 97 ± 8 nM
GI50 [9]: 44 nM
melting point: 132 to 134 °C
IC50 (VEGFR-2 [10]): 1.1 ± 0.08 nM
IC50 [12]: 44 ± 4 nM
Structure (SMILES): O=C(NCC(c1ccccc1)c1c(-c2ccccc2)[nH]c2ccccc12)c1[nH]c2ccc(Cl)cc2c1CO (centres unmarked) [Ve, 5-Chloro-3-(hydroxymethyl)-N-(2-phenyl-2-(2-phenyl-1H-indol-3-yl)ethyl)-1H-indole-2-carboxamide]
Caspase-3 Conc (caspase-3): 462 ± 4 pg/mL
Caspase-3 Fold Change (caspase-3): 7
viability at 96 h, 50 µM [11]: 90%

IC50 [4]: 48 ± 4 nM
IC50 (EGFR [5]): 103 ± 8 nM
IC50 [6]: 46 ± 4 nM
IC50 [7]: 49 ± 4 nM
IC50 (BRAF^V600E [8]): 107 ± 9 nM
GI50 [9]: 48 nM
melting point: 131 to 133 °C
IC50 (VEGFR-2 [10]): 2.5 ± 0.2 nM
IC50 [12]: 48 ± 4 nM
Structure (SMILES): O=C(NCC(c1ccccc1)c1c(-c2ccccc2)[nH]c2ccccc12)c1[nH]c2ccc(Cl)cc2c1-c1ccccc1 (centres unmarked) [Vf, 5-Chloro-3-phenyl-N-(2-phenyl-2-(2-phenyl-1H-indol-3-yl)ethyl)-1H-indole-2-carboxamide]
viability at 96 h, 50 µM [11]: 91%
